Test results reported in US9073864B2, “Aromatic ring compound” (TAKEDA PHARMACEUTICAL COMPANY LIMITED, priority 2012, dated 2015).

molecular target: T1, human type glucagon receptor (Homo sapiens, UniProt P47871); assay: Measurement of glucagon binding inhibitory activity ([125I]-glucagon, receptor membrane protein); details: test compound 10 μM; 0.4% DMSO alone = 0%, unlabeled glucagon 1 μM = 100%; read-out: inhibitory rate (%) at 10 μM
T1 construct: an about 1.4 kb DNA fragment containing glucagon receptor gene was recovered from the gel; expressed in transfected cells; host or cells: FreeStyle CHO cells (transient expression); membrane fraction prepared by homogenisation and ultracentrifugation
Description: The glucagon binding inhibitory action of the compound of the present invention was evaluated by the following method.
(1) Cloning of Human Glucagon Receptor Gene
Human glucagon receptor gene was cloned by PCR reaction using human pancreas Marathon-ready cDNA (Clontech Laboratories, Inc.) as a template and the following primer set.
The PCR reaction was performed using Advantage 2 polymerase (Clontech Laboratories, Inc.) and according to the attached protocol. The obtained PCR product was subjected to agarose gel (1%) electrophoresis, an about 1.4 kb DNA fragment containing glucagon receptor gene was recovered from the gel, and digested with restriction enzymes EcoRI and NotI. The restriction enzyme-treated DNA was subjected to agarose gel (1%) electrophoresis, an about 1.4 kb DNA fragment was recovered and ligated with plasmid pMSRaneo digested with restriction enzymes EcoRI and NotI to give human type glucagon receptor expression plasmid DNA “pMSRaneo/hGCGR”. The base sequence of the inserted fragment was confirmed to be identical with the object sequence.
(2) Preparation of Glucagon Receptor Membrane Protein
Human type glucagon receptor was expressed using FreeStyle CHO Expression System (Invitrogen™). According to the manual attached to the FreeStyle CHO Expression System, and using the human type glucagon receptor expression plasmid DNA “pMSRaneo/hGCGR” produced in the above-mentioned (1), transient expression was performed by FreeStyle CHO cells. The above-mentioned DNA was transfected, and shaking culture was performed at 37° C., 8% CO2, 125 rpm for 2 days. The culture medium was centrifuged at 2,000 rpm for 10 min and the cells were recovered. The recovered cells were washed with PBS, suspended in homogenate buffer [10 mM NaHCO3 (pH 7.4), 1 mM EDTA, complete EDTA-free (Roche, Ltd., 1 tablet/50 ml)], and the cells were disrupted by a Polytron cell disruption apparatus (Kinematica AG). The disruption solution was centrifuged at 2,000 rpm for 10 min, and the supernatant was recovered. The supernatant was centrifuged at 35,000 rpm for 60 min, and the precipitate was suspended in a buffer [20 mM Tris-HCl (pH 7.4), 5 mM EDTA, complete EDTA-free (Roche, Ltd., 1 tablet/50 ml)] to give a glucagon receptor membrane protein.
(3) Measurement of Glucagon Binding Inhibitory Activity
The reaction was started by adding 50 μl of a glucagon receptor membrane protein solution diluted with a reaction buffer [50 mM HEPES (pH 7.4), 5 mM EGTA, 5 mM magnesium chloride, 0.1% BSA, 0.005% Tween20] to 100 μg/ml, 25 μl of a test compound solution containing 0.4% DMSO, which solution was prepared with the reaction buffer to a compound concentration of 40 μM, and 25 μl of radiolabeled glucagon ([^125I]-Receptor Grade Glucagon; Perkin Elmer Inc.) diluted with the reaction buffer to 200 pM to each well of a 96 well plate (Corning Incorporated). The plate was stood at room temperature for 90 min, then the reaction solution was transferred from the reaction plate onto a 96 well unifilter GF/C plate (Perkin Elmer Inc.) by a cell harvester (Perkin Elmer Inc.), and suctioned to collect a membrane fraction on the filter. The filter was immersed in a 0.3% polyethyleneimine solution in advance to prevent non-specific adsorption of the labeled ligand. The filter was washed 4 times with the reaction buffer, and dried at 42° C. for 2 hr. To each well was added 25 μl of scintillator (MicroScint0; Perkin Elmer Inc.), and the amount of fluorescence was measured by a microplate scintillation counter (TopCount NXT™; Perkin Elmer Inc.).
The inhibitory rate (%) of the well added with the test compound (10 μM; containing 0.4% DMSO solution) was calculated wherein the reaction rate of the well added with 0.4% DMSO alone was 0% inhibitory rate and that of the well added with unlabeled glucagon (final concentration 1 μM) was 100% inhibitory rate.

T1 sequence (P47871 26-477): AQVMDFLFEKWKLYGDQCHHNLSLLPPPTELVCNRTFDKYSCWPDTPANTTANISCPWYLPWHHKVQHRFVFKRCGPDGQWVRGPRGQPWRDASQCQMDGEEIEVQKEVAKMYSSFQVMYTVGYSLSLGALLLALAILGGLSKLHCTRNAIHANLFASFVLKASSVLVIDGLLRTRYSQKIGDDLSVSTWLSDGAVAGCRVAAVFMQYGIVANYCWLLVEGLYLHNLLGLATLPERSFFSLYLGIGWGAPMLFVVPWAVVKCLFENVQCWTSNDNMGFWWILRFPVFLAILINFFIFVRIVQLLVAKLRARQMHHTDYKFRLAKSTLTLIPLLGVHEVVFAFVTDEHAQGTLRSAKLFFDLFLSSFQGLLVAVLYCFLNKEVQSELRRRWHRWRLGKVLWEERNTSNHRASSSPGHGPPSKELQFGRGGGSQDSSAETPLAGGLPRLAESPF

SMILES	inhibition at 10 µM
O=C(O)[C@@H]1CCCN(C(=O)c2ccc(NC(CCC(F)(F)F)c3ccc(-c4ccccc4)cn3)cc2)C1 (stereo partly drawn) [Example 25, (3R)-1-(4-((4,4,4-trifluoro-1-(5-phenylpyridin-2-yl)butyl)amino)benzoyl)piperidine-3-carboxylic acid]	71%
Cc1cc(-c2ccc(F)cc2)ccc1C(CCC(F)(F)F)Nc1ccc(C(=O)N2CCC[C@@H](C(=O)O)C2)cc1 (stereo partly drawn) [Example 5, (3R)-1-(4-((4,4,4-trifluoro-1-(4′-fluoro-3-methylbiphenyl-4-yl)butyl)amino)benzoyl)piperidine-3-carboxylic acid]	86%
Cc1cc(-n2cc3c(n2)CCCC3)ccc1C(Nc1ccc(C(=O)N2CCC[C@@H](C(=O)O)C2)cc1)C(C)C (mixture of isomers) [Example 116, (3R)-1-(4-((2-methyl-1-(2-methyl-4-(4,5,6,7-tetrahydro-2H-indazol-2-yl)phenyl)propyl)amino)benzoyl)piperidine-3-carboxylic acid]	90%
Cc1cc(-n2cc3c(n2)CCCC3)ccc1C(CCC(F)(F)F)Nc1ccc(C(=O)N2CCC[C@@H](C(=O)O)C2)cc1 (mixture of isomers) [Example 20, (3R)-1-(4-((4,4,4-trifluoro-1-(2-methyl-4-(4,5,6,7-tetrahydro-2H-indazol-2-yl)phenyl)butyl)amino)benzoyl)piperidine-3-carboxylic acid]	93%
Cc1cc(-c2ccc(C(F)(F)F)nc2)ccc1C(CCC(F)(F)F)Nc1ccc(C(=O)N2CCC[C@@H](C(=O)O)C2)cc1 (mixture of isomers) [Example 9, (3R)-1-(4-((4,4,4-trifluoro-1-(2-methyl-4-(6-(trifluoromethyl)pyridin-3-yl)phenyl)butyl)amino)benzoyl)piperidine-3-carboxylic acid]	90%
Cc1cc(-n2ccc(C(C)C)n2)ccc1C(CCC(F)(F)F)Nc1ccc(C(=O)N2CCC[C@@H](C(=O)O)C2)cc1 (mixture of isomers) [Example 19, (3R)-1-(4-((4,4,4-trifluoro-1-(4-(3-isopropyl-1H-pyrazol-1-yl)-2-methylphenyl)butyl)amino)benzoyl)piperidine-3-carboxylic acid]	87%
COc1ccc(-c2ccc(C(CCC(F)(F)F)Nc3ccc(C(=O)N4CCC[C@@H](C(=O)O)C4)cc3)c(C)c2)cc1 (stereo partly drawn) [Example 7, (3R)-1-(4-((4,4,4-trifluoro-1-(4′-methoxy-3-methylbiphenyl-4-yl)butyl)amino)benzoyl)piperidine-3-carboxylic acid]	91%
Cc1cc(-n2cc3c(n2)CCCC3)ccc1C(Nc1ccc(C(=O)N2CCC[C@@H](C(=O)O)C2)cc1)C(C)C (stereo partly drawn) [Example 117, (3R)-1-(4-((2-methyl-1-(2-methyl-4-(4,5,6,7-tetrahydro-2H-indazol-2-yl)phenyl)propyl)amino)benzoyl)piperidine-3-carboxylic acid]	90%
Cc1cc(-c2ccc(C(F)(F)F)cn2)ccc1C(CCC(F)(F)F)Nc1ccc(C(=O)N2CCC[C@@H](C(=O)O)C2)cc1 (mixture of isomers) [Example 10, (3R)-1-(4-((4,4,4-trifluoro-1-(2-methyl-4-(5-(trifluoromethyl)pyridin-2-yl)phenyl)butyl)amino)benzoyl)piperidine-3-carboxylic acid]	88%
Cc1cc(-c2ncc(C(F)(F)F)cn2)ccc1C(CCC(F)(F)F)Nc1ccc(C(=O)N2CCC[C@@H](C(=O)O)C2)cc1 (mixture of isomers) [Example 11, (3R)-1-(4-((4,4,4-trifluoro-1-(2-methyl-4-(5-(trifluoromethyl)pyrimidin-2-yl)phenyl)butyl)amino)benzoyl)piperidine-3-carboxylic acid]	93%
Cc1cc(-c2ccc(C#N)cc2)ccc1C(CCC(F)(F)F)Nc1ccc(C(=O)N2CCC[C@@H](C(=O)O)C2)cc1 (stereo partly drawn) [Example 8, (3R)-1-(4-((1-(4′-cyano-3-methylbiphenyl-4-yl)-4,4,4-trifluorobutyl)amino)benzoyl)piperidine-3-carboxylic acid]	91%
CCc1cnc(-c2ccc(C(Nc3ccc(C(=O)N4CCC[C@@H](C(=O)O)C4)cc3)C(C)C)c(C)c2)nc1 (stereo partly drawn) [Example 112, (3R)-1-(4-((1-(4-(5-ethylpyrimidin-2-yl)-2-methylphenyl)-2-methylpropyl)amino)benzoyl)piperidine-3-carboxylic acid]	90%
O=C(O)[C@@H]1CCCN(C(=O)c2ccc(NC(CCC(F)(F)F)c3ccc(-c4ccc(Cl)cc4)cc3)nc2)C1 (stereo partly drawn) [Example 28, (3R)-1-((6-((1-(4′-chlorobiphenyl-4-yl)-4,4,4-trifluorobutyl)amino)pyridin-3-yl)carbonyl)piperidine-3-carboxylic acid]	98%
O=C(O)[C@@H]1CCCN(C(=O)c2ccc(NC(CCC(F)(F)F)c3ccc(-c4ccc(Cl)cc4)cc3)cc2)C1 (stereo partly drawn) [Example 27, (3R)-1-(4-((1-(4′-chlorobiphenyl-4-yl)-4,4,4-trifluorobutyl)amino)benzoyl)piperidine-3-carboxylic acid]	86%
CCc1cnc(-c2ccc(C(CCC(F)(F)F)Nc3ccc(C(=O)N4CCC[C@@H](C(=O)O)C4)cc3)c(C)c2)nc1 (mixture of isomers) [Example 13, (3R)-1-(4-((1-(4-(5-ethylpyrimidin-2-yl)-2-methylphenyl)-4,4,4-trifluorobutyl)amino)benzoyl)piperidine-3-carboxylic acid]	84%
O=C(O)[C@@H]1CCCN(C(=O)c2ccc(NC(c3ccc(-c4ccc(Cl)cc4)cc3)C3CCCCC3)cc2)C1 (stereo partly drawn) [Example 24, (3R)-1-(4-(((4′-chlorobiphenyl-4-yl)(cyclohexyl)methyl)amino)benzoyl)piperidine-3-carboxylic acid]	84%
Cc1cc(-c2ccc(Cl)cc2)ccc1C(Nc1ccc(C(=O)N2CCC[C@@H](C(=O)O)C2)cn1)C1CCCCC1 (stereo partly drawn) [Example 17, (3R)-1-((6-(((4′-chloro-3-methylbiphenyl-4-yl)(cyclohexyl)methyl)amino)pyridin-3-yl)carbonyl)piperidine-3-carboxylic acid]	92%
Cc1cc(-c2ncc(C(C)(C)C)o2)ccc1C(CCC(F)(F)F)Nc1ccc(C(=O)N2CCC[C@@H](C(=O)O)C2)cc1 (stereo partly drawn) [Example 23, (3R)-1-(4-((1-(4-(5-tert-butyl-1,3-oxazol-2-yl)-2-methylphenyl)-4,4,4-trifluorobutyl)amino)benzoyl)piperidine-3-carboxylic acid]	90%
Cc1cc(-c2ccc(F)cc2)ccc1C(CCC(F)(F)F)Nc1ccc(C(=O)N2CCC[C@@H](C(=O)O)C2)cn1 (stereo partly drawn) [Example 6, (3R)-1-((6-((4,4,4-trifluoro-1-(4′-fluoro-3-methylbiphenyl-4-yl)butyl)amino)pyridin-3-yl)carbonyl)piperidine-3-carboxylic acid]	85%
Cc1cc(-c2ccc(Cl)cc2)ccc1C(Nc1ccc(C(=O)N2CCC[C@@H](C(=O)O)C2)cc1)C1CCCCC1 (stereo partly drawn) [Example 16, (3R)-1-(4-(((4′-chloro-3-methylbiphenyl-4-yl)(cyclohexyl)methyl)amino)benzoyl)piperidine-3-carboxylic acid]	93%
Cc1cc(C(CCC(F)(F)F)Nc2ccc(C(=O)N3CCC[C@@H](C(=O)O)C3)cc2)cc(C)c1-c1ccc(Cl)cc1 (stereo partly drawn) [Example 18, (3R)-1-(4-((1-(4′-chloro-2,6-dimethylbiphenyl-4-yl)-4,4,4-trifluorobutyl)amino)benzoyl)piperidine-3-carboxylic acid]	86%
